Experiments:
[1] = system: HaCat normal keratinocytes; assay: LDH release membrane integrity assay, HaCat; details: compounds at their IC50 concentrations, 24 h; combinations 1:1; relative to maximum release
Excerpt: (§1) In order to determine cell membrane integrity, the CytoTox-ONE™ Homogeneous Membrane Integrity Assay (Promega, Madison, WO, USA) was employed. This fluorometric assay measures the release of LDH from cells with damaged cell membranes. […] The manufacturer’s instructions were followed to determine the fluorescence at an excitation wavelength of 560 nm and an emission wavelength of 590 nm. In order to calculate the percentage cytotoxicity, the average fluorescent values of the background medium were subtracted from all average fluorescent values of the experimental samples and the positive control. Cytotoxicity is expressed as a percentage relative to the positive control, which is assumed to be responsible for 100% LDH release. The fold increase in LDH release was taken as the indication of the selectivity toward melanoma cell membranes, calculated as the […]. All experiments were performed at least in triplicate and independently repeated. Statistical significant differences were calculated with one-way ANOVA.
(§2) Results are expressed relative to the untreated control and the maximum release sample, which was set as having 0% and 100% LDH release respectively. The LDH released from the nonmalignant HaCat cells and the A375 melanoma cells was then used to deduce the selectivity of the compounds against melanoma cell membranes.

[2] = system: HaCat normal keratinocytes; assay: Intracellular ROS, DCFH-DA assay, HaCat; type: cell-based, human; details: 12 h treatment, result in words
Description: HaCat and A375 cells were seeded at 25,000 cells/well in 96-well plates (Black plate, Clear bottom, Corning, Costar®, NY, USA) and incubated until cells were ~90% confluent. Serum-free DMEM without phenol red (Thermo Fisher Scientific, Gibco, Carlsbad, CA, USA) was used for all experiments. Cells were exposed to compounds or H2O2 (500 µM) for 12 h. Cell staining with ROS fluorescent indicator 2’,7’-dichlorodihydrofluorescein diacetate (DCFH-DA) was performed 1.5 h before the end of the 12-h exposure time. A kinetic analysis was then performed at 37°C using a microplate reader (SpectraMax® ParadigmTM Molecular Devices, Sunnyvale, CA, USA) by measuring the DCF fluorescence (excitation 485 nm and emission 535 nm) every 10 min for 1 h. […] The Bradford assay (Coomassie blue colorimetric method) was then performed in order to determine the relative amount of protein per well, as an indication of cell number per well, and all fluorescence measurements were normalized relative to the cell number. The background fluorescence produced by blank medium controls and unstained but treated cell controls were subtracted from DCFH-DA stained cells. The DCF fluorescence measured at the beginning of the analysis (time 0) was subtracted from the DCF fluorescence at the indicated times for the kinetic analysis (results not shown). […]
The levels of intracellular ROS were determined using the DCFH-DA assay. […]

[3] = system: HaCat normal keratinocytes; assay: MTT cell viability assay, HaCat; type: cell-based, human; details: 24 h; for CC50: Homo sapiens, HaCaT, combinations 1:1, mean ± SD, read-out: HaCat IC50
Excerpt: (§3) The human cell lines TK10 (human kidney adenocarcinoma), UACC62 (human melanoma) and MCF7 (human breast adenocarcinoma) were obtained from the National Cancer Institute (NCI) as part of a panel widely studied for drug screening and molecular target identification. […] The nontumorigenic human immortalized keratinocyte (HaCaT) cells were a kind donation by the School of Anatomical Sciences, Faculty of Health Sciences, University of the Witwatersrand, South Africa. […] All reagents were of analytical grade and were obtained from Merck (Darmstadt, Germany) unless stated otherwise. Cells were cultured in Dulbecco’s modified essential medium (DMEM; Hyclone, GE healthcare, South Logan, UT, USA) containing 10% fetal bovine serum (FBS), 1% penicillin/streptomycin, 1% 200 mM L-Glutamine and 1% nonessential amino acids (Lonza, Basel, Switzerland) at 37°C in a humidified atmosphere of 5% CO2. Stock solutions of the compounds were prepared in dimethyl sulfoxide (DMSO). All subsequent dilutions were prepared in serum-free DMEM and vehicle controls were included in all experiments
(§4) The growth inhibitory effects of the compounds were tested in the 3-cell line panel consisting of TK10 (renal), UACC62 (melanoma) and MCF7 (breast) cancer cells by Sulforhodamine B (SRB) assay. […] Compounds prepared in DMSO were tested at 0.01–100 µM serial dilutions to establish initial inhibitory concentrations. […] After 24 h exposure to compounds, growth medium was removed, cells rinsed twice with 1 ml of phosphate buffered saline (PBS) and 100 µl fresh serum-free medium containing 5 mg/ml MTT solution was added MTT solution was prepared fresh for each analysis). Cells were then incubated for 4 h at 37°C, after which the MTT was removed and substituted with 100 µl dimethyl sulfoxide (DMSO) to dissolve the formazan crystals for an h at 37°C. After incubation, cell viability was determined using a microplate reader (BioTek®, Vermont, USA) at an excitation wavelength of 560 nm and emission wavelength of 630 nm with DMSO measured as a blank. Cell viability was expressed as a percentage relative to the untreated control, which is assumed to be 100% viable. For a positive control, cells were treated with 0.01% Triton-X 100 (Sigma-Aldrich, St Louis, MO, USA) for a period of 4 h. Using the MTT assay data, IC50 values were calculated using GraphPad Prism 8. Data were normalized to the positive (alleged to be 0% viable) and negative controls (presumed to be 100% viable), followed by the log-transformation of the concentration values. […] A crude therapeutic index (fold decrease in IC50 value) was calculated as the IC50 of the noncancerous cell-line/IC50 of the cancerous cell line. […] Drug interactions were evaluated for synergism, additivity or antagonism using multiple drug effect analysis, based on the median-principle. Cells were treated with the drug combinations for 24 h and analyzed. The CompuSyn (ComboSyn, Inc. NJ, USA) software package was used to generate the median-effect plots and combination index plots. […] All experiments were performed at least in triplicate and repeated independently.
(§5) Next, the quantitative colorimetric MTT assay was used to determine in vitro cell viability with A375 (melanoma) and HaCat (nonmalignant keratinocyte) cells. […] The IC50 was used to determine a crude therapeutic index (fold increase or decline in IC50).

A375 melanoma cells [4] = assay: MTT cell viability assay, A375; type: cell-based, human; details: for IC50: MTT, 24 h, combinations 1:1
Excerpt: as §3, §4, §5

A375 melanoma cells [5] = assay: LDH release membrane integrity assay, A375; type: cell-based, human; details: for LDH release, result in words: IC50 concentrations, 24 h (Table 3, Figure 6C); for A375 (% LDH release): compounds at their IC50 concentrations, 24 h, combinations 1:1, relative to maximum release
Excerpt: as §1, §2

| HaCat (% LDH release) [1] [%] | IC50 (A375 melanoma cells [4]; Homo sapiens, A-375, mean ± SD) [nM] | SMILES | Intracellular ROS (DCF fluorescence fold change vs untreated control) [2] | IC50 ([3]; results from elesclomol-Cu(II) reported in nM, combinations 1:1) [nM] | Therapeutic index (TI) (A375 melanoma cells [4]; IC50 of HaCat cells/IC50 of A375 cells) | IC50 (A375 melanoma cells [4]; results from elesclomol-Cu(II) reported in nM) [nM] | LDH release, result in words (A375 melanoma cells [5]) | A375 (% LDH release) (A375 melanoma cells [5]) [%] | Fold increase in LDH release (A375 melanoma cells [5]; selectivity toward melanoma cell membranes, A375 vs HaCat) | CC50 [3] [µM] |
| --- | --- | --- | --- | --- | --- | --- | --- | --- | --- | --- |
| 7 ± 0.31 | 43700 ± 1370 | COc1cc([C@@H]2c3cc4c(cc3[C@@H](O[C@@H]3O[C@@H]5CO[C@@H](C)O[C@H]5[C@H](O)[C@H]3O)[C@H]3COC(=O)[C@H]23)OCO4)cc(OC)c1O [Etoposide 9, etoposide] | – | – | – | – | did not significantly increase the release of LDH | 11 ± 0.56 | – | > 13000 |
| 35 ± 1.02 | 569800 ± 2950 | O=C(O)c1cc(/N=N/c2ccc(S(=O)(=O)Nc3ccccn3)cc2)ccc1O [Sulfasalazine 8, sulfasalazine] | – | – | – | – | did not significantly increase the release of LDH | 21 ± 0.96 | – | 2223 ± 5.37 |

| SMILES | HaCat (% LDH release) [1] [%] | IC50 (A375 melanoma cells [4]; Homo sapiens, A-375, mean ± SD) [nM] | Intracellular ROS (DCF fluorescence fold change vs untreated control) [2] | IC50 ([3]; results from elesclomol-Cu(II) reported in nM, combinations 1:1) [nM] | Therapeutic index (TI) (A375 melanoma cells [4]; IC50 of HaCat cells/IC50 of A375 cells) | IC50 (A375 melanoma cells [4]; results from elesclomol-Cu(II) reported in nM) [nM] | LDH release, result in words (A375 melanoma cells [5]) | A375 (% LDH release) (A375 melanoma cells [5]) [%] | Fold increase in LDH release (A375 melanoma cells [5]; selectivity toward melanoma cell membranes, A375 vs HaCat) | CC50 [3] [µM] |
| --- | --- | --- | --- | --- | --- | --- | --- | --- | --- | --- |
| CN([N-]C(=O)CC(=O)[N-]N(C)C(=[SH+])c1ccccc1)C(=[SH+])c1ccccc1.[Cu] [Elesclomol-Cu(II) 1-Cu, elesclomol-Cu(II)] | 16 ± 0.79 | – | no significant increased intracellular ROS | 4.88 ± 0.56 | 2.8 | 1.72 ± 0.23 | did not significantly increase the release of LDH | 21 ± 0.94 | 1.3 | – |

— paper PMC7552967, “Anti-Melanoma Activities of Artemisone and Prenylated Amino-Artemisinins in Combination With Known Anticancer Drugs” (Frontiers in Pharmacology, 2020)
